From PubChem BioAssay (NCI)
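A five-concentration, 48-hour dose response in 96-well plates underlies each endpoint, interpolated linearly between surrounding concentrations. GI50 = concentration required for 50% inhibition of growth. TGI: concentration producing complete growth inhibition.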

Experiments:
Assay in all cases: DTP human tumour cell line panel, 48 h; in the data active means GI50 below about 0.43 µM; inactive means the rest
[1] = system: 786-0 renal
[2] = system: A549 NSCLC
[3] = system: CAKI-1 renal
[4] = system: COLO 205 colon
[5] = system: DLD-1 colon
[6] = system: DMS 114 small cell lung
[7] = system: EKVX NSCLC
[8] = system: HCC-2998 colon
[9] = system: HCT-116 colon
[10] = system: HCT-15 colon
[11] = system: HOP-18 NSCLC
[12] = system: IGROV1 ovarian
[13] = system: KM20L2 colon
[14] = system: LXFL 529 NSCLC
[15] = system: M14 melanoma
[16] = system: M19-MEL melanoma
[17] = system: MALME-3M melanoma
[18] = system: NCI-H226 lung
[19] = system: NCI-H23 lung
[20] = system: NCI-H460 lung
[21] = system: NCI-H522 lung
[22] = system: OVCAR-3 ovarian
[23] = system: OVCAR-4 ovarian
[24] = system: OVCAR-5 ovarian
[25] = system: OVCAR-8 ovarian
[26] = system: RPMI-8226 leukemia
[27] = system: RXF 393 renal
[28] = system: SF-268 CNS
[29] = system: SF-295 CNS
[30] = system: SF-539 CNS
[31] = system: SK-MEL-2 melanoma
[32] = system: SK-MEL-28 melanoma
[33] = system: SN12C renal
[34] = system: SNB-19 CNS
[35] = system: SNB-75 CNS
[36] = system: SNB-78 CNS
[37] = system: SR leukemia
[38] = system: SW-620 colon
[39] = system: TK-10 renal
[40] = system: U251 CNS
[41] = system: UACC-62 melanoma
[42] = system: UO-31 renal
[43] = system: A498 renal
[44] = system: ACHN renal
[45] = system: DMS 273 small cell lung
[46] = system: HOP-62 NSCLC
[47] = system: HOP-92 NSCLC
[48] = system: HT29 colon
[49] = system: K-562 leukemia
[50] = system: KM12 colon
[51] = system: MOLT-4 leukemia
[52] = system: SK-MEL-5 melanoma
[53] = system: SK-OV-3 ovarian
[54] = system: UACC-257 melanoma

NCCN.NCCN.[Cl-].[O]=[Os+2]=[O]
> 100 µM: TGI [1] | TGI [2] | TGI [3] | TGI [4] | TGI [5] | TGI [6] | TGI [7] | TGI [8] | TGI [9] | TGI [10] | TGI [11] | TGI [12] | TGI [13] | TGI [14] | TGI [15] | TGI [17] | TGI [18] | TGI [19] | TGI [20] | TGI [21] | TGI [22] | TGI [23] | TGI [24] | TGI [25] | TGI [26] | TGI [27] | TGI [28] | TGI [29] | TGI [30] | TGI [31] | TGI [32] | TGI [33] | TGI [34] | TGI [35] | TGI [36] | TGI [37] | TGI [38] | TGI [39] | TGI [40] | TGI [41] | TGI [42]
inactive: GI50 [1] > 100 µM | GI50 [2] > 100 µM | GI50 [3] > 100 µM | GI50 [4] > 100 µM | GI50 [5] > 100 µM | GI50 [6] > 100 µM | GI50 [7] > 100 µM | GI50 [8] > 100 µM | GI50 [9] > 100 µM | GI50 [10] > 100 µM | GI50 [11] > 100 µM | GI50 [12] > 100 µM | GI50 [13] > 100 µM | GI50 [14] > 100 µM | GI50 [15] > 100 µM | GI50 [16] 12 µM | GI50 [17] > 100 µM | GI50 [18] > 100 µM | GI50 [19] > 100 µM | GI50 [20] > 100 µM | GI50 [21] > 100 µM | GI50 [22] > 100 µM | GI50 [23] > 100 µM | GI50 [24] > 100 µM | GI50 [25] > 100 µM | GI50 [26] > 100 µM | GI50 [27] > 100 µM | GI50 [28] > 100 µM | GI50 [29] > 100 µM | GI50 [30] > 100 µM | GI50 [31] > 100 µM | GI50 [32] > 100 µM | GI50 [33] > 100 µM | GI50 [34] > 100 µM | GI50 [35] 71 µM | GI50 [36] > 100 µM | GI50 [37] 67.4 µM | GI50 [38] > 100 µM | GI50 [39] > 100 µM | GI50 [40] > 100 µM | GI50 [41] > 100 µM | GI50 [42] > 100 µM
28.8 µM: TGI [16]

O=[N+]([O-])c1ccc(C2=NN(c3ccccc3)C[N+](c3ccc(Br)cc3)=N2)cc1
79.8 µM: TGI [27]
> 100 µM: TGI [1] | TGI [43] | TGI [2] | TGI [44] | TGI [3] | TGI [4] | TGI [5] | TGI [45] | TGI [7] | TGI [8] | TGI [9] | TGI [10] | TGI [11] | TGI [46] | TGI [47] | TGI [48] | TGI [12] | TGI [49] | TGI [50] | TGI [13] | TGI [14] | TGI [15] | TGI [16] | TGI [17] | TGI [51] | TGI [18] | TGI [19] | TGI [20] | TGI [21] | TGI [23] | TGI [24] | TGI [25] | TGI [26] | TGI [28] | TGI [29] | TGI [30] | TGI [31] | TGI [32] | TGI [52] | TGI [53] | TGI [33] | TGI [34] | TGI [35] | TGI [36] | TGI [37] | TGI [38] | TGI [39] | TGI [40] | TGI [54] | TGI [41] | TGI [42]
